ChEMBL document CHEMBL1157354, “Asymmetric synthesis of inhibitors of glycinamide ribonucleotide transformylase” (J Med Chem, 2008)

Assays:
CCRF-CEM [1] = assay: Cytotoxicity against folyl-poly-glutamate synthetase-deficient human CCRF-CEM cells in absence of thymidine and hypoxanthine
CCRF-CEM [2] = assay: Cytotoxicity against human CCRF-CEM cells in absence of thymidine and hypoxanthine
CCRF-CEM [3] = assay: Cytotoxicity against human CCRF-CEM cells in absence of thymidine and presence of hypoxanthine
CCRF-CEM [4] = assay: Cytotoxicity against human CCRF-CEM cells in presence of thymidine and absence of hypoxanthine
[5] = molecular target: Bifunctional purine biosynthesis protein ATIC (Homo sapiens, UniProt P31939); assay: Inhibition of human recombinant AICAR transformylase
CCRF-CEM [6] = assay: Cytotoxicity against human CCRF-CEM cells expressing reduced folate carrier in absence of thymidine and hypoxanthine
[7] = molecular target: T1, Trifunctional purine biosynthetic protein adenosine-3 (Homo sapiens, UniProt P22102); assay: Inhibition of human recombinant GAR transformylase
T1 sequence (P22102 whole entry): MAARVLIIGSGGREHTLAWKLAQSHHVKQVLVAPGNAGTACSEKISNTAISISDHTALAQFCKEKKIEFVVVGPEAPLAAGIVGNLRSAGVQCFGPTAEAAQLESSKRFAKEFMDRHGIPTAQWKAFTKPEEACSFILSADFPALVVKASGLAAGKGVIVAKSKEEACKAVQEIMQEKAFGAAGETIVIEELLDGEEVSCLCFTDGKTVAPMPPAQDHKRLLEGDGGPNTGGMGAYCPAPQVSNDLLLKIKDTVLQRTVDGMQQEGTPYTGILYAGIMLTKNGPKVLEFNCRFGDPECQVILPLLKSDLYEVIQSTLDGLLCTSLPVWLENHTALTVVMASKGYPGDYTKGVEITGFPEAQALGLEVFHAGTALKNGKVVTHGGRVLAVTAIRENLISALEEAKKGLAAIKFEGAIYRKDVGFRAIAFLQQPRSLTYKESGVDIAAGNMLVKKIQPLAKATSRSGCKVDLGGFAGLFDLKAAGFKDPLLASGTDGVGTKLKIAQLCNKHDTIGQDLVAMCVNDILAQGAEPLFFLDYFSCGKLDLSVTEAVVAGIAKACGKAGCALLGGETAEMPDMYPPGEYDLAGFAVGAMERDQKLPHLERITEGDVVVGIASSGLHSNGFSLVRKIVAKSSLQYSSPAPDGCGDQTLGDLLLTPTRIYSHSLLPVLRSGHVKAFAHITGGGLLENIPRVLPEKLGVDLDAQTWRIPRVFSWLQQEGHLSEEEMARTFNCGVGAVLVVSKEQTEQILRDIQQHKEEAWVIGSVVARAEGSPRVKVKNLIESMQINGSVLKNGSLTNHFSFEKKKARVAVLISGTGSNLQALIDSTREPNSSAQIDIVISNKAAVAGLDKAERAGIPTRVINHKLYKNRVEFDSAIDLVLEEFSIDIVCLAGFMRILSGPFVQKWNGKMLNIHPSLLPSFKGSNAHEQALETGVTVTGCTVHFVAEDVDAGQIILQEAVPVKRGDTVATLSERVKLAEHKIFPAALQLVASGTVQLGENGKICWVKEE

Bifunctional purine biosynthesis protein ATIC, sequence (P31939 whole entry): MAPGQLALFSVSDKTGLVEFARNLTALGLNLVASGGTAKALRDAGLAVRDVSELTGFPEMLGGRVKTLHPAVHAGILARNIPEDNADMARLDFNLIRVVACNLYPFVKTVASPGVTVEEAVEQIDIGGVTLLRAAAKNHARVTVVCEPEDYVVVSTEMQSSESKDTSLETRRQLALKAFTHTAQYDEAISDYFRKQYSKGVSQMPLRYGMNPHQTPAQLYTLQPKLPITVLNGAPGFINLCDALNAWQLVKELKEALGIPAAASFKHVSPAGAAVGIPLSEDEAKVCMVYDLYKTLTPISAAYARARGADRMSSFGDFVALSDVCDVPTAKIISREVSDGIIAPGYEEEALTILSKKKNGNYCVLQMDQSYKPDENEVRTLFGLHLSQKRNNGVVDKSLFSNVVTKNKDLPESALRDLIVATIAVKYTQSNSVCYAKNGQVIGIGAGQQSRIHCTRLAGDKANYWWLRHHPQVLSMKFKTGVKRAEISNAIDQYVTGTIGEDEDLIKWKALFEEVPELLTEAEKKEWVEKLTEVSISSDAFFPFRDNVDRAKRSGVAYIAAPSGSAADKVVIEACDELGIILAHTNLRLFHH

Ki [7] [µM]	Structure (SMILES)	IC50 (CCRF-CEM [1]) [µM]	IC50 (CCRF-CEM [2]) [µM]	IC50 (CCRF-CEM [3]) [µM]	IC50 (CCRF-CEM [4]) [µM]	Ki [5] [µM]	IC50 (CCRF-CEM [6]) [µM]
	Nc1nc(N)c(CCCC(C(=O)C(F)(F)F)c2ccc(C(=O)N[C@@H](CCC(=O)O)C(=O)O)cc2)c(=O)[nH]1 (some centres not stated)	> 10	0.016	> 10	0.017	> 100	
	CS[C@@H](CCCc1c(N)nc(N)[nH]c1=O)c1ccc(C(=O)N[C@@H](CCC(=O)O)C(=O)O)cc1	5	0.05	> 10	0.07	> 100	0.06
	CO[C@H](CCCc1c(N)nc(N)[nH]c1=O)c1ccc(C(=O)N[C@@H](CCC(=O)O)C(=O)O)cc1	6	0.5	> 10	0.7	> 100	0.6
	Nc1nc(N)c(CCCC2(c3ccc(C(=O)N[C@@H](CCC(=O)O)C(=O)O)cc3)SCCCS2)c(=O)[nH]1		> 100	> 10	> 100	20	
1.1	Nc1nc(N)c(CCC[C@@H](O)c2ccc(C(=O)N[C@@H](CCC(=O)O)C(=O)O)cc2)c(=O)[nH]1	> 10	2.4	> 10	5.7	> 100	
	CS[C@H](CCCc1c(N)nc(N)[nH]c1=O)c1ccc(C(=O)N[C@@H](CCC(=O)O)C(=O)O)cc1	5.5	0.08	> 10	0.08	> 100	0.07
	Nc1nc(N)c(CCC[C@H](O)c2ccc(C(=O)N[C@@H](CCC(=O)O)C(=O)O)cc2)c(=O)[nH]1	> 10		> 10		> 100	
	CO[C@@H](CCCc1c(N)nc(N)[nH]c1=O)c1ccc(C(=O)N[C@@H](CCC(=O)O)C(=O)O)cc1	> 10	0.7	> 10	0.9	> 100	0.9
	Nc1nc(N)c(CCCCc2ccc(C(=O)N[C@@H](CCC(=O)O)C(=O)O)cc2)c(=O)[nH]1 [DIDEAZAACYCLOTETRAHYDROFOLIC ACID]	> 10	2.7	> 10	3.6	20	> 100
	Nc1nc2c(c(=O)[nH]1)C[C@@H](CCc1ccc(C(=O)N[C@@H](CCC(=O)O)C(=O)O)cc1)CN2 [LOMETREXOL]	> 10		> 10		> 100	> 100
